Reference: PMC7708037, “Targeting OGG1 arrests cancer cell proliferation by inducing replication stress” (Nucleic Acids Research, 2020)

Columns and labels:
Type in all cases: cell-based, human
[1] = test system: Reh; assay: Resazurin viability, 5 days; settings: C, Acute lymphocytic leukemia (non-T, non-B)
Protocol: (§1) Cells were seeded in 96- or 384-well plates and incubated for 3 days for combination experiments or 5 days for single-drug exposure experiments. Resazurin (R7017, SigmaAldrich) was added to a final concentration of 0.01 mg/ml resazurin and fluorescence was measured at ex530/em590 after incubation for 2, 4 or 6 h. Curves were fitted using XLfit software (IDBS) or Prism 8.0 (Graphpad Software), and EC50 values were determined.
(§2) Supplementary Table S1: Effect of OGG1 inhibitors on cancer and non-transformed cell lines.
(§3) Cell lines were incubated with a dilution series of the indicated compounds for 5 days, and viability
(§4) assessed with resazurin. EC50-values were calculated based on the resulting dose -response curves.
(§5) The number of independent experiments is indicated for each value.
(§6) C=cancer;N=non- Disease EC50 n= EC50 n= EC50 n=
(§7) transformed (µM) (µM) (µM) […]

[2] = test system: Jurkat; assay: Resazurin viability, 5 days; settings: C, T-cell acute lymphoblastic leukemia
Protocol: as §1, §2, §3, §4, §5, §6, §7

[3] = test system: ACHN; assay: Resazurin viability, 5 days; settings: C, Kidney adenocarcinoma
Protocol: as §1, §2, §3, §4, §5, §6, §7

[4] = test system: BJ-Ras; assay: Resazurin viability, 5 days; settings: C, RAS-transformed fibroblast
Protocol: as §1, §2, §3, §4, §5, §6, §7

[5] = test system: LCL#2; assay: Resazurin viability, 5 days; settings: LCL#2, N, Non-transformed lymphoblastoid cell line
Protocol: as §1, §2, §3, §4, §5, §6, §7

[6] = test system: LCL#1; assay: Resazurin viability, 5 days; settings: LCL#1, N, Non-transformed lymphoblastoid cell line
Protocol: as §1, §2, §3, §4, §5, §6, §7

[7] = test system: RFX393; assay: Resazurin viability, 5 days; settings: RFX393, C, Kidney carcinoma
Protocol: as §1, §2, §3, §4, §5, §6, §7

[8] = test system: MRC5; assay: Resazurin viability, 5 days; settings: MRC5, N, Non-transformed lung fibroblast
Protocol: as §1, §2, §3, §4, §5, §6

[9] = test system: HT-29; assay: Resazurin viability, 5 days; settings: HT-29, C, Colorectal adenocarcinoma
Protocol: as §1, §2, §3, §4, §5, §6

[10] = test system: VH10; assay: Resazurin viability, 5 days; settings: VH10, N, Non-transformed fibroblast
Protocol: as §1, §2, §3, §4, §5, §6

[11] = test system: PC3; assay: Resazurin viability, 5 days; settings: PC3, C, Prostate adenocarcinoma
Protocol: as §1, §2, §3, §4, §5, §6

[12] = test system: UO31; assay: Resazurin viability, 5 days; settings: UO31, C, Kidney carcinoma
Protocol: as §1, §2, §3, §4, §5, §6

[13] = test system: THP1; assay: Resazurin viability, 5 days; settings: THP1, C, Acute monocytic leukemia
Protocol: as §1, §2, §3, §4, §5, §6, §7
THP1 C Acute monocytic leukemia 17.8 4 19.2 2

[14] = test system: genomic 8-oxodG in A3 cells; assay: 8-oxodG detection in genomic DNA by LC-MS/MS; settings: 10 μM, up to five days
Protocol: 8-oxodG detection in genomic DNA through LC–MS/MS ([39]) and single-cell electrophoresis ([40]) were performed as described.
Figure 5. Effect of TH5487 on DNA lesions, DNA damage markers and DNA replication. (A) 8-oxodG accumulation in A3 cells. A3 cells were treated with 20 mM KBrO3 for 1 h or with 10 μM TH5487 for the indicated times, and the amount of genomic 8-oxodG was quantified with LC-MS/MS. Data are average ±SD of five replicates from two independent experiments. (B) Comet assay. A3 cells were treated with 10 μM TH5487 for 72 h and strand-breaks and OGG1 substrate lesions were analyzed with the OGG1-modified Comet assay. Representative images of cells are shown. (C) Violin blot of Comet tail moment. Cells were treated as in B, and the tail moment of the cells were analyzed using blinded automatic analysis (n = 200 per condition from two independent experiments). The full line indicates median, and the dotted lines quartiles. (D) Violin blot of phosphorylated γH2AX intensity. A3 cells were treated with 0.1% DMSO or 10 μM TH5487 for the indicated times and stained for phosphorylated γH2AX. […] At least 33 000 nuclei per group were quantified from three independent experiments. […] At least 300 forks were scored per condition. Statistical significance was determined using unpaired, two-sided t-tests (**P < 0.01, ***P < 0.001 and ****P < 0.0001; ns, non-significant).

[15] = test system: NB-4; assay: Resazurin viability, 5 days; settings: NB-4, C, Acute promyelocytic leukemia
Protocol: as §1, §2, §3, §4, §5, §6, §7

[16] = test system: Hec59+Chr2; assay: Resazurin viability, 5 days; settings: Hec59+Chr2, C, Endometrioid adenocarcinoma with WT Chr2
Protocol: as §1, §2, §3, §4, §5, §6, §7

[17] = test system: SW1271; assay: Resazurin viability, 5 days; settings: SW1271, C, Small cell lung carcinoma
Protocol: as §1, §2, §3, §4, §5, §6

[18] = test system: Hec59; assay: Resazurin viability, 5 days; settings: Hec59, C, Endometrioid adenocarcinoma
Protocol: as §1, §2, §3, §4, §5, §6

[19] = test system: K562; assay: Resazurin viability, 5 days; settings: K562, C, Chronic myelogenous leukemia
Protocol: as §1, §2, §3, §4, §5, §6

[20] = test system: MCF7; assay: Resazurin viability, 5 days; settings: MCF7, C, Breast adenocarcinoma
Protocol: as §1, §2, §3, §4, §5, §6

Cc1cc(NC(=O)N2CCC(n3c(=O)[nH]c4c(Br)cccc43)CC2)ccc1I [TH6943, 4-(4-Bromo-2-oxo-3H-benzimidazol-1-yl)-N-(4-iodo-3-methyl-phenyl)piperidine-1-carboxamide]
EC50 ([1]; Homo sapiens, 120 h): 17.3 µM
EC50 ([2]; Homo sapiens, 120 h): 15.2 µM
EC50 ([3]; Homo sapiens, 120 h): 2.8 µM
EC50 ([4]; Homo sapiens, 120 h): 14.1 µM
EC50 ([5]; Homo sapiens, 120 h): 32.3 µM
EC50 ([6]; Homo sapiens, 120 h): 40 µM
EC50 ([7]; Homo sapiens, 120 h): 11.7 µM
EC50 ([8]; Homo sapiens, 120 h): 47.1 µM
EC50 ([9]; Homo sapiens, 120 h): 22 µM
EC50 ([10]; Homo sapiens, 120 h): 47.5 µM
EC50 ([11]; Homo sapiens, PC-3, 120 h): 28.7 µM
EC50 ([12]; Homo sapiens, UO-31, 120 h): 3.2 µM

O=C(Nc1ccc(I)cc1)N1CCC(n2c(=O)[nH]c3c(Br)cccc32)CC1 [TH5487]
EC50 [13]: 17.8 µM
Genomic 8-oxodG levels [14]: did not rise above assay background levels
EC50 [1]: 18.3 µM
EC50 [2]: 10.5 µM
EC50 [3]: 2.3 µM
EC50 [4]: 4.8 µM
EC50 [15]: 4.8 µM
EC50 [5]: 27.7 µM
EC50 [6]: 31.1 µM
EC50 [7]: 19.6 µM
EC50 [16]: 15.7 µM
EC50 [17]: 22 µM
EC50 [8]: 42.4 µM
EC50 [9]: 24.5 µM
EC50 [18]: 17 µM
EC50 [19]: 16.7 µM
EC50 [10]: 32.4 µM
EC50 [20]: 23.3 µM
EC50 [11]: 32.6 µM
EC50 [12]: 2.9 µM

O=C(Nc1ccc(Cl)c(Cl)c1)N1CCC(n2c(=O)[nH]c3c(-c4ccc(CO)nc4)cccc32)CC1 [TH5796, N-(3,4-Dichlorophenyl)-4-[4-[6-(hydroxymethyl)-3-pyridyl]-2-oxo-3H-benzimidazol-1-yl]piperidine-1-carbox amide]
EC50 ([13]; Homo sapiens, THP-1, 120 h): 19.2 µM
EC50 ([1]; Homo sapiens, 120 h): 14.7 µM
EC50 ([2]; Homo sapiens, 120 h): 13.8 µM
EC50 ([3]; Homo sapiens, 120 h): 8.5 µM
EC50 ([4]; Homo sapiens, 120 h): 15.1 µM
EC50 ([15]; Homo sapiens, 120 h): 11.5 µM
EC50 ([5]; Homo sapiens, 120 h): 40.7 µM
EC50 ([6]; Homo sapiens, 120 h): 33.5 µM
EC50 ([7]; Homo sapiens, 120 h): 14.2 µM
EC50 ([16]; Homo sapiens, 120 h): 17.3 µM
EC50 ([17]; Homo sapiens, 120 h): 24.6 µM
EC50 ([8]; Homo sapiens, 120 h): 20.8 µM
EC50 ([9]; Homo sapiens, 120 h): 22.6 µM
EC50 ([18]; Homo sapiens, 120 h): 11.5 µM
EC50 ([19]; Homo sapiens, 120 h): 21 µM
EC50 ([10]; Homo sapiens, 120 h): 20.9 µM
EC50 ([20]; Homo sapiens, 120 h): 26.5 µM
EC50 ([11]; Homo sapiens, PC-3, 120 h): 19.3 µM
EC50 ([12]; Homo sapiens, UO-31, 120 h): 7.1 µM
